# Laboratory results from US10508104B2, “6-hydroxy-5-(phenyl/heteroarylsulfonyl)pyrimidin-4(1H)-one as APJ agonists” (Bristol-Myers Squibb Company, priority 2016, dated 2019).
# pEC50: −log10 of the molar value.
# Molecular target: human APJ receptor (Homo sapiens (Human), UniProt P35414)
# Assay: Intracellular cAMP accumulation assay (APJ hcAMP, HTRF)
# Assay type: cell-based
# Conditions: HEK293 cells stably expressing human APJ receptor; inhibition of forskolin-mediated cAMP production; read-out: Human APJ cAMP EC50 Potency range
# How it was run: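 HEK293 cells stably expressing human APJ, 5,000 per well, incubated 30 min at rt with compound, […] and 2 μM forskolin. cAMP measured by HTRF against a cAMP standard curve as inhibition of forskolin-driven production. EC50 from variable-slope sigmoidal fit.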
# human APJ receptor, sequence (P35414 whole entry): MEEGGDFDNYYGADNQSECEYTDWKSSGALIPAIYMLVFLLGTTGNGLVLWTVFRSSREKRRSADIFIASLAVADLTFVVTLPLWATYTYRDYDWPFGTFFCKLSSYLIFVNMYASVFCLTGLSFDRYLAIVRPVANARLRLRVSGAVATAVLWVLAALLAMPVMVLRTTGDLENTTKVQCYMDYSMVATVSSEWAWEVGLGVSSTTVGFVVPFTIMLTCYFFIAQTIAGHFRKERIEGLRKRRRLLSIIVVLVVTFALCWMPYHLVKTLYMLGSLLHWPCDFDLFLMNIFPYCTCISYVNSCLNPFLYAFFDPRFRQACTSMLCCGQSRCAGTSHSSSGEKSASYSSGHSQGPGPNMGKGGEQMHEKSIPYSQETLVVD
row,pEC50,SMILES
1,7.00 to 8.00,"COC[C@@H](c1ccccc1)n1c(CCC(C)C)nc(=O)c(S(=O)(=O)c2ccc(Br)cc2)c1O [Example 184, (R)-5-((4-Bromophenyl)sulfonyl)-6-hydroxy-2-isopentyl-3-(2-methoxy-1-phenylethyl)pyrimidin-4(3H)-one]"
2,8.00 to 11.00,"COC[C@@H](c1ccccc1)n1c(CCC(C)C)nc(=O)c(S(=O)(=O)c2ccc(-c3ccnc(F)c3C)cc2)c1O [Example 189, (R)-5-((4-(2-Fluoro-3-methylpyridin-4-yl)phenyl)sulfonyl)-6-hydroxy-2-isopentyl-1-(2-methoxy-1-phenylethyl)pyrimidin-4(1H)-one]"

# Same assay, conditions: human APJ, intracellular cAMP accumulation; read-out: Human APJ cAMP EC50 Potency range
row,SMILES,pEC50
1,"COC[C@@H](c1ccccc1)n1c(CC2CC2)nc(=O)c(S(=O)(=O)c2ccc(-c3ccncc3C)cc2)c1O [Example 178, 2-(cyclopropylmethyl)-6-hydroxy-1-[(1R)-2-methoxy-1-phenylethyl]-5-[4-(3-methylpyridin-4-yl)benzenesulfonyl]-1,4-dihydropyrimidin-4-one]",8.00 to 11.00
2,"COC[C@@H](c1ccccc1)n1c(CC2CC2)nc(=O)c(S(=O)(=O)c2ccc(-c3ccnc(F)c3C)cc2)c1O [Example 179, 2-(cyclopropylmethyl)-5-[4-(2-fluoro-3-methylpyridin-4-yl)benzenesulfonyl]-6-hydroxy-1-[(1R)-2-methoxy-1-phenylethyl]-1,4-dihydropyrimidin-4-one]",8.00 to 11.00
3,"COC[C@@H](c1ccccc1)n1c(CC2CC2)nc(=O)c(S(=O)(=O)c2ccc(-c3cccnc3C)cc2)c1O [Example 180, 2-(cyclopropylmethyl)-6-hydroxy-1-[(1R)-2-methoxy-1-phenylethyl]-5-[4-(2-methylpyridin-3-yl)benzenesulfonyl]-1,4-dihydropyrimidin-4-one]",8.00 to 11.00
4,"COC[C@@H](c1ccccc1)n1c(CC2CC2)nc(=O)c(S(=O)(=O)c2ccc(-c3cncc(F)c3)cc2)c1O [Example 181, 2-(cyclopropylmethyl)-5-[4-(5-fluoropyridin-3-yl)benzenesulfonyl]-6-hydroxy-1-[(1R)-2-methoxy-1-phenylethyl]-1,4-dihydropyrimidin-4-one]",8.00 to 11.00
5,"COC[C@@H](c1ccccc1)n1c(CC2CC2)nc(=O)c(S(=O)(=O)c2ccc(-c3ccc(F)nc3)cc2)c1O [Example 182, 2-(cyclopropylmethyl)-5-[4-(6-fluoropyridin-3-yl)benzenesulfonyl]-6-hydroxy-1-[(1R)-2-methoxy-1-phenylethyl]-1,4-dihydropyrimidin-4-one]",8.00 to 11.00
6,"COC[C@@H](c1ccccc1)n1c(CC2CC2)nc(=O)c(S(=O)(=O)c2ccc(-c3ccc(F)nc3C)cc2)c1O [Example 183, 2-(cyclopropylmethyl)-5-[4-(6-fluoro-2-methylpyridin-3-yl)benzenesulfonyl]-6-hydroxy-1-[(1R)-2-methoxy-1-phenylethyl]-1,4-dihydropyrimidin-4-one]",8.00 to 11.00
7,"CCCCc1nc(=O)c(S(=O)(=O)c2ccc(Br)cc2)c(O)n1[C@H](C)c1ccc(OC)cc1 [Example 185, 5-(4-bromobenzenesulfonyl)-2-butyl-6-hydroxy-1-[(1R)-1-(4-methoxyphenyl)ethyl]-1,4-dihydropyrimidin-4-one]",6.52 to 7.00
8,"CCCCc1nc(O)c(S(=O)(=O)c2ccc(Br)cc2)c(=O)n1C(C)c1cccnc1 (stereo not shown) [Example 187, 5-(4-bromobenzenesulfonyl)-2-butyl-6-hydroxy-3-[1-(pyridin-3-yl)ethyl]-3,4-dihydropyrimidin-4-one]",6.52 to 7.00
9,"COC[C@@H](c1ccccc1)n1c(CCC(C)C)nc(=O)c(S(=O)(=O)c2ccc(-c3cccnc3C)cc2)c1O [Example 190, 6-hydroxy-1-[(1R)-2-methoxy-1-phenylethyl]-2-(3-methylbutyl)-5-[4-(2-methylpyridin-3-yl)benzenesulfonyl]-1,4-dihydropyrimidin-4-one]",8.00 to 11.00
10,"COC[C@@H](c1ccccc1)n1c(CCC(C)C)nc(=O)c(S(=O)(=O)c2ccc(-c3ccncc3C)cc2)c1O [Example 191, 6-hydroxy-1-[(1R)-2-methoxy-1-phenylethyl]-2-(3-methylbutyl)-5-[4-(3-methylpyridin-4-yl)benzenesulfonyl]-1,4-dihydropyrimidin-4-one]",8.00 to 11.00
11,"CCCCc1nc(=O)c(S(=O)(=O)c2ccc(-c3ccncc3C)cc2)c(O)n1[C@@H](CC)c1cccc(Cl)c1 [Example 192, 2-butyl-1-[(1S)-1-(3-chlorophenyl)propyl]-6-hydroxy-5-[4-(3-methylpyridin-4-yl)benzenesulfonyl]-1,4-dihydropyrimidin-4-one]",8.00 to 11.00

# More lines, now with the values ahead:
row,pEC50,SMILES
1,8.00 to 11.00,"CCCCc1nc(=O)c(S(=O)(=O)c2ccc(-c3cccnc3C)cc2)c(O)n1[C@@H](CC)c1cccc(Cl)c1 [Example 193, 2-butyl-1-[(1S)-1-(3-chlorophenyl)propyl]-6-hydroxy-5-[4-(2-methylpyridin-3-yl)benzenesulfonyl]-1,4-dihydropyrimidin-4-one]"
2,8.00 to 11.00,"CCCCc1nc(=O)c(S(=O)(=O)c2ccc(-c3ccnc(F)c3C)cc2)c(O)n1[C@@H](CC)c1cccc(Cl)c1 [Example 194, 2-butyl-1-[(1S)-1-(3-chlorophenyl)propyl]-5-[4-(2-fluoro-3-methylpyridin-4-yl)benzenesulfonyl]-6-hydroxy-1,4-dihydropyrimidin-4-one]"
3,8.00 to 11.00,"COC[C@@H](c1ccccc1)n1c(CCC(C)C)nc(=O)c(S(=O)(=O)c2ccc(-c3cncc(F)c3)cc2)c1O [Example 195, 5-[4-(5-fluoropyridin-3-yl)benzenesulfonyl]-6-hydroxy-1-[(1R)-2-methoxy-1-phenylethyl]-2-(3-methylbutyl)-1,4-dihydropyrimidin-4-one]"
4,8.00 to 11.00,"COC[C@@H](c1ccccc1)n1c(CCC(C)C)nc(=O)c(S(=O)(=O)c2ccc(-c3ccc(F)nc3C)cc2)c1O [Example 196, 5-[4-(6-fluoro-2-methylpyridin-3-yl)benzenesulfonyl]-6-hydroxy-1-[(1R)-2-methoxy-1-phenylethyl]-2-(3-methylbutyl)-1,4-dihydropyrimidin-4-one]"
5,8.00 to 11.00,"CCCCc1nc(=O)c(S(=O)(=O)c2ccc(-c3cncc(F)c3)cc2)c(O)n1[C@@H](CC)c1cccc(Cl)c1 [Example 197, 2-butyl-1-[(1S)-1-(3-chlorophenyl)propyl]-5-[4-(5-fluoropyridin-3-yl)benzenesulfonyl]-6-hydroxy-1,4-dihydropyrimidin-4-one]"
6,8.00 to 11.00,"CCCCc1nc(=O)c(S(=O)(=O)c2ccc(-c3ccc(F)nc3C)cc2)c(O)n1[C@@H](CC)c1cccc(Cl)c1 [Example 198, 2-butyl-1-[(1S)-1-(3-chlorophenyl)propyl]-5-[4-(6-fluoro-2-methylpyridin-3-yl)benzenesulfonyl]-6-hydroxy-1,4-dihydropyrimidin-4-one]"
7,8.00 to 11.00,"COC[C@@H](c1ccccc1)n1c(CCC(C)C)nc(=O)c(S(=O)(=O)c2ccc(-c3ccc(F)nc3)cc2)c1O [Example 199, 5-[4-(6-fluoropyridin-3-yl)benzenesulfonyl]-6-hydroxy-1-[(1R)-2-methoxy-1-phenylethyl]-2-(3-methylbutyl)-1,4-dihydropyrimidin-4-one]"
8,8.00 to 11.00,"CCCCc1nc(=O)c(S(=O)(=O)c2ccc(-c3ccc(F)nc3)cc2)c(O)n1[C@@H](CC)c1cccc(Cl)c1 [Example 200, 2-butyl-1-[(1S)-1-(3-chlorophenyl)propyl]-5-[4-(6-fluoropyridin-3-yl)benzenesulfonyl]-6-hydroxy-1,4-dihydropyrimidin-4-one]"
9,8.00 to 11.00,CCCCc1nc(=O)c(S(=O)(=O)c2ccc(-c3ccncc3C)cc2)c(O)n1C(c1ccccc1)C1CC1 (stereo not shown) [Example 201]
